Test results reported in patent publication US5710124A, “Method for combatting bovine mastitis” (Novartis Corporation, priority 1993, dated 1998).
Ends that are not written are not given here.

Key:
[1] = test system: S. aureus Newbold 305; assay: MIC plate assay; assay type: cell-based, Staphylococcus aureus
Experimental: (§1) The MICs (Minimal Inhibitory Concentrations) of Gallidermin against […] and Streptococcus diacetylactis were determined. S. aureus Newbold 305 is a causative agent of Mastitis, S. diacetylactis is used in the manufacture of yoghurt and cheese.
(§2) Appropriate dilutions Gallidermin (300, 100, 30, 10, 3, 1, 0.3, 0.1 µg/ml) were prepared in milk and in M17 broth (Merck) and allowed to stand at room temperature for 30 min.
(§3) Then, […] aliquots of the solutions were spotted on M17 agar plates containing 0.5% of glucose. These plates had been overlaid with softagar (0.5% agarose) seeded with 1% of an A600=1 culture of either S. aureus or S. diacetylactis. The spots were allowed to dry, then the plates were incubated at 30° C. overnight.
(§4) The MICs were determined as the lowest concentration of antimicrobial protein causing the formation of a clear halo in the bacterial lawn.

[2] = test system: Streptococcus diacetylactis; assay: MIC plate assay; assay type: cell-based; conditions: for MIC: S. diacetylactis
Experimental: as §1, §2, §3, §4

[3] = test system: Staphylococcus aureus; assay: Subclinical bovine mastitis infection model, intramammary treatment; assay type: in vivo, cows
From the text: Preliminary experiments for evaluating the potential of Gallidermin, Epidermin or of their pharmaceutically acceptable acid addition salts in subclinical bovine mastitis
Non-infected cows are selected based on non recovery of Staphylococcus aureus from two milk samples taken one day apart from all quarters. Then, 3 quarters are inoculated via the intramammary route using a suspension of Staphylococcus aureus. The 4th quarter serves as control. During the two to four weeks after inoculation, milk samples are taken from all quarters at least 3 times to see whether Staphylococcus aureus can be recovered, and therefore whether the quarter has become infected. A quarter is defined as infected, if Staphylococcus aureus is recovered from at least two of these milk samples. Treatments are assigned randomly to infected quarters and injected via the intramammary route. Milk samples are taken daily until a minimum of 14 days after the last treatment. A quarter is considered as cured if milk samples from that quarter become negative (i.e., no Staphylococcus aureus is recovered) within 7 days after the last treatment and stay negative throughout the 14 day sampling period.
This experimental model is used to have a fixed framework on which to evaluate treatments. To work with Staphylococcus aureus has the advantage that it is the most difficult Gram positive bacterium to treat and one of the most important bacteria causing bovine mastitis. Therefore, cure rates should be expected to be lower than for other Gram positive bacteria, such as Streptococci and coagulase-negative Staphylococci.
In addition, the infection is mild as it should be for subclinical mastitis.
To optimize work load in relation to man power, 8 to 16 cows are enrolled in each trial. Trials normally last 5 weeks.

[4] = test system: Staphylococcus aureus Newbold 305; assay: Effect on S. aureus in milk (cfu, percent survival); assay type: cell-based; conditions: for % survival: 37° C. 30 min
Experimental: Effect of Gallidermin on […] in milk Staphylococcus aureus Newbold 305 was grown in M17 broth (Merck) at 37° C. to an optical density at 600 nm of 1.0. Cells were collected by centrifugation and washed in 20 mM Tris-HCl pH 8.0. The bacterial pellet was resuspended in milk at a density of about 10^7 cells/ml. 1 ml aliquots of this suspension were incubated in eppendorf tubes with various amounts of Nisin, Lacticin 481 and Gallidermin. Incubations were at 37° C. for 30 min. A control with no antimicrobial added was run in parallel. After incubation the samples were centrifuged to obtain the cellular pellet, which was washed 2 times with 1 ml of 20 mM Tris-HCl pH 8.0 and resuspended in 1 ml of this buffer. […] of the appropriate dilutions were plated on M17 agar plates containing 0.5% glucose and incubated overnight at 37° C. Colony forming units (cfu) were determined and percent survival was calculated relative to the control.

Question: Which results are given for “Gallidermin (IASKFLCTPGCAKTGSFNSYCC; not fully specified; ends and bridges not checked; also: lantibiotic; UniProt P21838 31-52, looked up) [natural product produced by the microorganism Staphylococcus gallinarum; lanthionine containing peptide]”?
Answer: MIC ([1]; dilutions in M17 broth): 1 mug/ml; MIC ([1]; dilutions in milk): 0.3 mug/ml; MIC ([2]; dilutions in M17 broth): 0.3 mug/ml; MIC ([2]; dilutions in milk): 1 mug/ml; activity against Streptococcus diacetylactis in milk versus broth ([2]; milk and M17 broth): comparable activities; % of treated group positive ([3]; 3 × 1 mg, 27 qutrs, day 0 (before treatment)): 93%; % of treated group positive ([3]; 3 × 1 mg, 27 qutrs, day 1): 37%; % of treated group positive ([3]; 3 × 1 mg, 27 qutrs, day 2): 11%; % of treated group positive ([3]; 3 × 1 mg, 27 qutrs, day 3): 26%; % of treated group positive ([3]; 3 × 1 mg, 27 qutrs, day 4): 56%; % of treated group positive ([3]; 3 × 1 mg, 27 qutrs, day 5): 59%; % of treated group positive ([3]; 3 × 1 mg, 27 qutrs, day 7): 56%; % of treated group positive ([3]; 3 × 1 mg, 27 qutrs, day 8): 56%; % of treated group positive ([3]; 3 × 1 mg, 27 qutrs, day 9): 52%; % of treated group positive ([3]; 3 × 1 mg, 27 qutrs, day 10): 56%; % of treated group positive ([3]; 3 × 1 mg, 27 qutrs, day 11): 56%; % of treated group positive ([3]; 3 × 1 mg, 27 qutrs, day 12): 52%; % of treated group positive ([3]; 3 × 1 mg, 27 qutrs, day 14): 48%; % of treated group positive ([3]; 3 × 1 mg, 27 qutrs, day 15): 52%; % of treated group positive ([3]; 14 × 0.1 mg, 24 qutrs, day 0 (before treatment)): 96%; % of treated group positive ([3]; 14 × 0.1 mg, 24 qutrs, day 1): 88%; % of treated group positive ([3]; 14 × 0.1 mg, 24 qutrs, day 2): 88%; % of treated group positive ([3]; 14 × 0.1 mg, 24 qutrs, day 3): 71%; % of treated group positive ([3]; 14 × 0.1 mg, 24 qutrs, day 4): 58%; % of treated group positive ([3]; 14 × 0.1 mg, 24 qutrs, day 5): 67%; % of treated group positive ([3]; 14 × 0.1 mg, 24 qutrs, day 7): 50%; % of treated group positive ([3]; 14 × 0.1 mg, 24 qutrs, day 8): 67%; % of treated group positive ([3]; 14 × 0.1 mg, 24 qutrs, day 9): 71%; % of treated group positive ([3]; 14 × 0.1 mg, 24 qutrs, day 10): 88%; % of treated group positive ([3]; 14 × 0.1 mg, 24 qutrs, day 11): 83%; % of treated group positive ([3]; 14 × 0.1 mg, 24 qutrs, day 12): 88%; % of treated group positive ([3]; 14 × 0.1 mg, 24 qutrs, day 14): 79%; % of treated group positive ([3]; 14 × 0.1 mg, 24 qutrs, day 15): 88%; % of treated group positive ([3]; 14 × 0.1 mg, 24 qutrs, day 16): 83%; % of treated group positive ([3]; 14 × 0.1 mg, 24 qutrs, day 17): 83%; % of treated group positive ([3]; 14 × 0.1 mg, 24 qutrs, day 19): 79%; % of treated group positive ([3]; 14 × 0.1 mg, 24 qutrs, day 21): 83%; activity against Staphylococcus aureus in the presence of milk [4]: retains a high specific activity; % survival ([4]; 0.3 µg/ml): 29%; % survival ([4]; 1 µg/ml): 12%; % survival ([4]; 3 µg/ml): 1%; % survival ([4]; 10 µg/ml): 0.01%

Question: How did the “activity against Staphylococcus aureus in the presence of milk” value [4] turn out when Nisin was run?
Answer: strongly inhibited

Question: And the “% survival” value ([4]; 3 µg/ml)?
Answer: 65%

Question: What about the “% survival” value ([4]; 10 µg/ml) of the same substance?
Answer: 15%

Question: And the “% survival” value ([4]; 30 µg/ml)?
Answer: 1.8%

Question: What about the “% survival” value ([4]; 100 µg/ml) of the same substance?
Answer: 0.2%

Question: Which results are given for Lacticin 481?
Answer: activity against Staphylococcus aureus in the presence of milk [4]: strongly inhibited; % survival ([4]; 1 µg/ml): 74%; % survival ([4]; 3 µg/ml): 51%; % survival ([4]; 10 µg/ml): 36%; % survival ([4]; 30 µg/ml): 30%; % survival ([4]; 100 µg/ml): 12%
